From patent publication US10577317B2, “Crystal forms and production methods thereof” (Sunovion Pharmaceuticals Inc., priority 2017, dated 2020)
Like-named read-outs stand apart in the source and are kept apart here.

Columns and labels:
[1] = DVS water sorption isotherm, 25° C. scanned over 0 to 95% relative humidity (hygroscopicity); type: physicochemical
Excerpt: In various embodiments, the hygroscopicity of crystal forms of racemic amisulpride, enantiomeric amisulpride, and enantiomeric amisulpride solvates are characterized by dynamic vapor sorption (DVS). DVS is a gravimetric technique that measures how much of a solvent is absorbed by a sample by varying the vapor concentration surrounding the sample (e.g., relative humidity) and measuring the change in mass. In the present application, DVS is used to generate water sorption isotherms, which represent the equilibrium amount of vapor sorbed as a function of steady state relative vapor pressure at a constant temperature.

[2] = Solubility (mg/mL) in water, buffers, simulated fluids and organic solvents (Table 1); type: physicochemical

SMILES: CCN1CCC[C@H]1CNC(=O)c1cc(S(=O)(=O)CC)c(N)cc1OC [(S)-amisulpride Form A′, S-4-Amino-N-[(1-ethyl-2-pyrrolidinyl)methyl]-5-(ethylsulfonyl)-2-methoxybenzamide]
- Change Mass ([1]; FIG. 3E, RH 34.87 %, elapse time 641.9 min): 0.024 wt %
- Change Mass ([1]; FIG. 3E, RH 34.94 %, elapse time 875.6 min): 0.005 wt %
- Change Mass ([1]; FIG. 3E, RH 34.95 %, elapse time 543.9 min): 0.038 wt %
- Change Mass ([1]; FIG. 3E, RH 39.84 %, elapse time 314.8 min): 0.033 wt %
- Change Mass ([1]; FIG. 3E, RH 39.90 %, elapse time 865.6 min): 0.011 wt %
- Change Mass ([1]; FIG. 3E, RH 39.92 %, elapse time 533.9 min): 0.045 wt %
- Change Mass ([1]; FIG. 3E, RH 39.94 %, elapse time 650.9 min): 0.028 wt %
- Change Mass ([1]; FIG. 3E, RH 44.92 %, elapse time 659.9 min): 0.034 wt %
- Change Mass ([1]; FIG. 3E, RH 45.02 %, elapse time 325.8 min): 0.040 wt %
- Change Mass ([1]; FIG. 3E, RH 45.04 %, elapse time 523.9 min): 0.053 wt %
- Change Mass ([1]; FIG. 3E, RH 45.07 %, elapse time 856.1 min): 0.018 wt %
- Change Mass ([1]; FIG. 3E, RH 49.78 %, elapse time 334.8 min): 0.047 wt %
- Change Mass ([1]; FIG. 3E, RH 49.88 %, elapse time 668.9 min): 0.040 wt %
- Change Mass ([1]; FIG. 3E, RH 50.07 %, elapse time 845.0 min): 0.026 wt %
- Change Mass ([1]; FIG. 3E, RH 50.10 %, elapse time 512.9 min): 0.060 wt %
- Change Mass ([1]; FIG. 3E, RH 54.90 %, elapse time 345.8 min): 0.055 wt %
- Change Mass ([1]; FIG. 3E, RH 54.96 %, elapse time 679.9 min): 0.046 wt %
- Change Mass ([1]; FIG. 3E, RH 55.12 %, elapse time 501.9 min): 0.067 wt %
- Change Mass ([1]; FIG. 3E, RH 55.14 %, elapse time 834.0 min): 0.035 wt %
- Change Mass ([1]; FIG. 3E, RH 59.94 %, elapse time 356.8 min): 0.062 wt %
- Change Mass ([1]; FIG. 3E, RH 59.95 %, elapse time 688.9 min): 0.053 wt %
- Change Mass ([1]; FIG. 3E, RH 60.08 %, elapse time 490.9 min): 0.075 wt %
- Change Mass ([1]; FIG. 3E, RH 60.19 %, elapse time 823.0 min): 0.044 wt %
- Change Mass ([1]; FIG. 3E, RH 64.92 %, elapse time 699.9 min): 0.060 wt %
- Change Mass ([1]; FIG. 3E, RH 65.00 %, elapse time 365.8 min): 0.071 wt %
- Change Mass ([1]; FIG. 3E, RH 65.13 %, elapse time 814.0 min): 0.053 wt %
- Change Mass ([1]; FIG. 3E, RH 65.14 %, elapse time 479.9 min): 0.081 wt %
- Change Mass ([1]; FIG. 3E, RH 69.90 %, elapse time 710.9 min): 0.067 wt %
- Change Mass ([1]; FIG. 3E, RH 69.95 %, elapse time 376.8 min): 0.081 wt %
- Change Mass ([1]; FIG. 3E, RH 70.05 %, elapse time 468.9 min): 0.088 wt %
- Change Mass ([1]; FIG. 3E, RH 70.16 %, elapse time 803.0 min): 0.062 wt %
- Change Mass ([1]; FIG. 3E, RH 74.60 %, elapse time 385.8 min): 0.089 wt %
- Change Mass ([1]; FIG. 3E, RH 74.67 %, elapse time 719.9 min): 0.074 wt %
- Change Mass ([1]; FIG. 3E, RH 75.19 %, elapse time 457.9 min): 0.096 wt %
- Change Mass ([1]; FIG. 3E, RH 75.43 %, elapse time 792.0 min): 0.073 wt %
- Change Mass ([1]; FIG. 3E, RH 79.52 %, elapse time 728.9 min): 0.081 wt %
- Change Mass ([1]; FIG. 3E, RH 79.61 %, elapse time 394.8 min): 0.098 wt %
- Change Mass ([1]; FIG. 3E, RH 80.43 %, elapse time 783.0 min): 0.084 wt %
- Change Mass ([1]; FIG. 3E, RH 80.44 %, elapse time 448.8 min): 0.105 wt %
- Change Mass ([1]; FIG. 3E, RH 84.52 %, elapse time 403.8 min): 0.109 wt %
- Change Mass ([1]; FIG. 3E, RH 84.80 %, elapse time 737.9 min): 0.090 wt %
- Change Mass ([1]; FIG. 3E, RH 85.39 %, elapse time 774.0 min): 0.096 wt %
- Change Mass ([1]; FIG. 3E, RH 85.43 %, elapse time 439.8 min): 0.117 wt %
- Change Mass ([1]; FIG. 3E, RH 89.49 %, elapse time 412.8 min): 0.123 wt %
- Change Mass ([1]; FIG. 3E, RH 89.52 %, elapse time 746.9 min): 0.103 wt %
- Change Mass ([1]; FIG. 3E, RH 90.18 %, elapse time 430.8 min): 0.129 wt %
- Change Mass ([1]; FIG. 3E, RH 90.24 %, elapse time 765.0 min): 0.109 wt %
- Change Mass ([1]; FIG. 3E, RH 94.51 %, elapse time 421.8 min): 0.142 wt %
- Change Mass ([1]; FIG. 3E, RH 94.81 %, elapse time 756.0 min): 0.122 wt %
- Change Mass ([1]; FIG. 3F, RH 19.77 %, elapse time 317.2 min): 0.035 wt %
- Change Mass ([1]; FIG. 3F, RH 24.90 %, elapse time 326.2 min): 0.042 wt %
- solubility ([2]; aqueous buffer, 0.05M Acetate Buffer, solution pH 4.5, read-out: Solubility (mg/mL): 0.05M Acetate Buffer): > 100 mg/mL
- solubility ([2]; pH 1.1, Simulated Gastric Fluid (no enzyme), pH adjusted to 1.1 (Form A), 1.2 (Form A′), read-out: Solubility (mg/mL): Simulated Gastric Fluid (no enzyme)): > 100 mg/mL
- solubility ([2]; pH 6.7, fassgf or other biorelevant, Simulated Intestinal Fluid (no enzyme), pH adjusted to 6.7 (Form A), 6.9 (Form A′), read-out: Solubility (mg/mL): Simulated Intestinal Fluid (no enzyme)): > 100 mg/mL
